The values that follow come from ChEMBL document CHEMBL1944528, “Design, synthesis and CoMFA studies of N1-amino acid substituted 2,4,5-triphenyl imidazoline derivatives as p53-MDM2 binding inhibitors” (Bioorg Med Chem, 2012).

The target of test [1] is Tumour suppressor p53/oncoprotein Mdm2 (Homo sapiens, UniProt Q00987). In words: Competitive inhibition of MDM2/P53 interaction after 1 hr by fluorescence polarization assay. The test is classed as protein assay. In general terms: In fluorescence polarisation assays a small probe gives low polarisation when free and higher when bound to something large.
Chain of Tumour suppressor p53/oncoprotein Mdm2 (P04637 whole entry): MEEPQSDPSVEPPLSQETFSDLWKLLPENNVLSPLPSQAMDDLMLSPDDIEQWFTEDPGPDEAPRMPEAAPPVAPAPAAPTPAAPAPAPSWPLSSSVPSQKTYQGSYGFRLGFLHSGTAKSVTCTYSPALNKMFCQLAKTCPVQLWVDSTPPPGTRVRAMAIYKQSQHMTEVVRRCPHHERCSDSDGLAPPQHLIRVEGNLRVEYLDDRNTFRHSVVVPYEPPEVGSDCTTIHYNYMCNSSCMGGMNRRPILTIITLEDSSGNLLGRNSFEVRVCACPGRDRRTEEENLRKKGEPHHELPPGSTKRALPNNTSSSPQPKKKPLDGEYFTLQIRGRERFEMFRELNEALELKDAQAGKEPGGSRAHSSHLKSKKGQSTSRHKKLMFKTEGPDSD
Chain of Tumour suppressor p53/oncoprotein Mdm2 (Q00987 whole entry): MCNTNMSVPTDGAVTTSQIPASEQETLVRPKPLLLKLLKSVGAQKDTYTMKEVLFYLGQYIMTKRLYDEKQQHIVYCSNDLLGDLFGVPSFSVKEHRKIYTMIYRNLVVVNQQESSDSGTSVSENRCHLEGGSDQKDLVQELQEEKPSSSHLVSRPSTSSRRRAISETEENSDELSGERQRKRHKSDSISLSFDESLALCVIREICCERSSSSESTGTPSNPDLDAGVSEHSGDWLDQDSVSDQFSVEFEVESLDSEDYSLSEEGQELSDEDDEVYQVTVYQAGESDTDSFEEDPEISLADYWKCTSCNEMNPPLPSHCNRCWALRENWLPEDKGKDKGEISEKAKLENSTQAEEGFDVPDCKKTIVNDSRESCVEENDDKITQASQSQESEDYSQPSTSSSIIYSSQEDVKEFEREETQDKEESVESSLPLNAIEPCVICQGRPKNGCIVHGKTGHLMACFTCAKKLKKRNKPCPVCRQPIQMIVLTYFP
Test [2] deals with HCT-116. In words: Antiproliferative activity against human HCT116 cells after 72 hrs by MTT assay. The test is classed as functional, cell-based. A general note: Formazan colour is commonly taken as a measure of viable cells.
Test [3] relates to A549. In words: Antiproliferative activity against human A549 cells after 72 hrs by MTT assay. In kind it is functional, cell-based.
For test [4], the system named is SW-620. In words: Antiproliferative activity against human SW620 cells after 72 hrs by MTT assay. In kind it is functional, cell-based.
Test [5] deals with PC-3. In words: Antiproliferative activity against human PC3 cells after 72 hrs by MTT assay. In kind it is functional, cell-based.
The test system of test [6] is HL-60. In words: Antiproliferative activity against human HL60 cells after 72 hrs by MTT assay. The test is classed as functional, cell-based.
Test [7] has as its target Tumour suppressor p53/oncoprotein Mdm2 (Homo sapiens) (UniProt P04637+Q00987). In words: Ratio of nutlin-1 IC50 to compound IC50 for MDM2 expressed in Escherichia coli BL-21 and P53 binding interaction after 1 hr by fluorescence polarization competitive binding assay.
Where [8] appears, read: Homo sapiens, HCT-116, 72 h, read-out: IC50.
Setting [9] is: Homo sapiens, A549, 72 h, read-out: IC50.
The mark [10] stands for this setting: Homo sapiens, SW-620, 72 h, read-out: IC50.
The mark [11] stands for this setting: Homo sapiens, PC-3, 72 h, read-out: IC50.
Where [12] appears, read: Homo sapiens, HL-60, 72 h, read-out: IC50.

Structures are written as SMILES.

Chain of Tumour suppressor p53/oncoprotein Mdm2 (Homo sapiens) (P04637 whole entry, looked up): as the sequence (P04637 whole entry) above
Chain of Tumour suppressor p53/oncoprotein Mdm2 (Homo sapiens) (Q00987 whole entry, looked up): as the sequence (Q00987 whole entry) above

Consider `COc1ccc(C2=N[C@H](c3ccc(Cl)cc3)[C@H](c3ccc(Cl)cc3)N2C(=O)N[C@@H](C)C(=O)O)c(OC(C)C)c1`, for which the IC50 was 3.39 µM in test [1] (read-out: IC50); “Not Active” in test [2] (hct-116); “Not Active” in test [3] (a549); “Not Active” in test [4] (sw-620); “Not Active” in test [5] (pc-3); “Not Active” in test [6] (hl-60).
For `COc1ccc(C2=N[C@H](c3ccc(Cl)cc3)[C@H](c3ccc(Cl)cc3)N2C(=O)NCC(=O)N2CCOCC2)c(OC(C)C)c1`, the IC50 in test [1] (read-out: IC50) is 5.27 µM; in test [1] (read-out: pIC50 (converted)) it was 5.75 µM; in test [2] (setting [8]), 5.63 µM; in test [3] (setting [9]), 10.9 µM; in test [4] (setting [10]), 6.25 µM; in test [5] (setting [11]), 7.02 µM. Besides, the IC50 in test [6] (setting [12]) turned out to be 2.99 µM.
For `COc1ccc(C2=N[C@H](c3ccc(Cl)cc3)[C@H](c3ccc(Cl)cc3)N2C(=O)NCCCC(=O)O)c(OC(C)C)c1`, the IC50 in test [1] (read-out: IC50) was 2.05 µM; in test [2] (setting [8]), 6.07 µM; in test [3] (setting [9]) it was 0.48 µM; in test [4] (setting [10]) it was 5.7 µM; in test [5] (setting [11]), 3.9 µM; in test [6] (setting [12]), 5.73 µM.
Regarding `COc1ccc(C2=NC(c3ccc(Cl)cc3)C(c3ccc(Cl)cc3)N2C(=O)N2CCN(C(C)=O)CC2)c(OC(C)C)c1` (stereo not given), the IC50 in test [2] (setting [8]) amounted to 20.5 µM; in test [3] (setting [9]) it was 24 µM; in test [4] (setting [10]), 33.7 µM; in test [5] (setting [11]) it was 40.6 µM; in test [6] (setting [12]), 19.5 µM.
As to `CCOC(=O)CNC(=O)N1C(c2ccc(OC)cc2OC(C)C)=N[C@H](c2ccc(Cl)cc2)[C@@H]1c1ccc(Cl)cc1`, the IC50 in test [1] (read-out: IC50) was 4.29 µM; in test [2] (setting [8]), 4.74 µM; in test [3] (setting [9]), 3.63 µM; in test [4] (setting [10]), 3.88 µM; in test [5] (setting [11]) it was 6.89 µM; in test [6] (setting [12]), 2.93 µM.
As to `CCN(CC)C(=O)CNC(=O)N1C(c2ccc(OC)cc2OC(C)C)=N[C@H](c2ccc(Cl)cc2)[C@@H]1c1ccc(Cl)cc1`, the IC50 in test [1] (read-out: IC50) was determined as 9.41 µM; in test [2] (setting [8]) it was 5.1 µM; in test [3] (setting [9]) it was 4.33 µM; in test [4] (setting [10]), 12.3 µM; in test [5] (setting [11]), 5.84 µM; in test [6] (setting [12]) it was 6.08 µM.
For the molecule `CCN(CC)C(=O)CCNC(=O)N1C(c2ccc(OC)cc2OC(C)C)=N[C@H](c2ccc(Cl)cc2)[C@@H]1c1ccc(Cl)cc1`, the IC50 turned out to be 0.65 µM in test [1] (read-out: IC50); 6.39 µM in test [2] (setting [8]); 4.03 µM in test [3] (setting [9]); 3.13 µM in test [4] (setting [10]); 7.26 µM in test [5] (setting [11]); 4.62 µM in test [6] (setting [12]).
`COc1ccc(C2=N[C@H](c3ccc(Cl)cc3)[C@H](c3ccc(Cl)cc3)N2C(=O)N[C@H](C)C(=O)N2CCN(C)CC2)c(OC(C)C)c1`: the IC50 in test [1] (read-out: IC50) was determined as 5.96 µM; in test [2] (setting [8]), 3.71 µM; in test [3] (setting [9]), 2.97 µM; in test [4] (setting [10]), 2.74 µM; in test [5] (setting [11]), 6.74 µM; in test [6] (setting [12]), 3.17 µM.
Consider `CCOC(=O)[C@H](C)NC(=O)N1C(c2ccc(OC)cc2OC(C)C)=N[C@H](c2ccc(Cl)cc2)[C@@H]1c1ccc(Cl)cc1`, for which the IC50 in test [1] (read-out: IC50) is 0.84 µM; in test [2] (hct-116) it was “Not Active”; in test [3] (a549) it was “Not Active”; in test [4] (sw-620) it was “Not Active”; in test [5] (pc-3), “Not Active”; in test [6] (hl-60), “Not Active”.
For the molecule `COc1ccc(C2=N[C@H](c3ccc(Cl)cc3)[C@H](c3ccc(Cl)cc3)N2C(=O)NCC(=O)N2CCN(C)CC2)c(OC(C)C)c1`, the IC50 in test [1] (read-out: IC50) worked out at 20.6 µM; in test [2] (setting [8]), 4.49 µM; in test [3] (setting [9]), 3.62 µM; in test [4] (setting [10]), 6.17 µM; in test [5] (setting [11]), 3.55 µM; in test [6] (setting [12]) it was 3.29 µM.
On to `COc1ccc(C2=N[C@H](c3ccc(Cl)cc3)[C@H](c3ccc(Cl)cc3)N2C(=O)N[C@@H](C)C(=O)N2CCN(C)CC2)c(OC(C)C)c1`, for which the IC50 was 5.96 µM in test [1] (read-out: IC50); “Not Active” in test [2] (hct-116); “Not Active” in test [3] (a549); “Not Active” in test [4] (sw-620); “Not Active” in test [5] (pc-3); “Not Active” in test [6] (hl-60).
In the case of `COc1ccc(C2=N[C@H](c3ccc(Cl)cc3)[C@H](c3ccc(Cl)cc3)N2C(=O)NCCC(=O)N2CCOCC2)c(OC(C)C)c1`, the IC50 in test [1] (read-out: IC50) worked out at 2.23 µM; in test [2] (setting [8]), 3.78 µM; in test [3] (setting [9]), 3.96 µM; in test [4] (setting [10]), 5.89 µM; in test [5] (setting [11]) it was 7.58 µM; in test [6] (setting [12]), 3.6 µM.
As to `CCN(CC)C(=O)[C@@H](C)NC(=O)N1C(c2ccc(OC)cc2OC(C)C)=N[C@H](c2ccc(Cl)cc2)[C@@H]1c1ccc(Cl)cc1`, the IC50 was 5.01 µM in test [1] (read-out: IC50); 7.53 µM in test [2] (setting [8]); greater than 50 µM in test [3] (setting [9]); 8.56 µM in test [4] (setting [10]); 16.8 µM in test [5] (setting [11]); 8.48 µM in test [6] (setting [12]).
Consider `COc1ccc(C2=N[C@H](c3ccc(Cl)cc3)[C@H](c3ccc(Cl)cc3)N2C(=O)NCCC(=O)O)c(OC(C)C)c1`, for which the IC50 in test [1] (read-out: IC50) was 1.07 µM; in test [2] (hct-116), “Not Active”; in test [3] (a549) it was “Not Active”; in test [4] (sw-620), “Not Active”; in test [5] (pc-3) it was “Not Active”; in test [6] (hl-60) it was “Not Active”.
Take `CCN(CC)C(=O)CCCNC(=O)N1C(c2ccc(OC)cc2OC(C)C)=N[C@H](c2ccc(Cl)cc2)[C@@H]1c1ccc(Cl)cc1`: the IC50 was 4.18 µM in test [1] (read-out: IC50); 4.26 µM in test [2] (setting [8]); 1.38 µM in test [3] (setting [9]); 6.45 µM in test [4] (setting [10]); 7.54 µM in test [5] (setting [11]); 6.93 µM in test [6] (setting [12]).
Take `CCN(CC)C(=O)[C@H](C)NC(=O)N1C(c2ccc(OC)cc2OC(C)C)=N[C@H](c2ccc(Cl)cc2)[C@@H]1c1ccc(Cl)cc1`: the IC50 in test [1] (read-out: IC50) was found to be 12.6 µM; in test [2] (setting [8]), 2.01 µM; in test [3] (setting [9]), 3.31 µM; in test [4] (setting [10]), 4.6 µM; in test [5] (setting [11]), 5.32 µM; in test [6] (setting [12]), 4.22 µM.
As to `COc1ccc(C2=N[C@H](c3ccc(Cl)cc3)[C@H](c3ccc(Cl)cc3)N2C(=O)NCCC(=O)N2CCN(C)CC2)c(OC(C)C)c1`, the IC50 is 5.83 µM in test [1] (read-out: IC50); 2.36 µM in test [2] (setting [8]); 5.95 µM in test [3] (setting [9]); 5.99 µM in test [4] (setting [10]); 6.83 µM in test [5] (setting [11]); 2.93 µM in test [6] (setting [12]).
In the case of `CCOC(=O)CCCNC(=O)N1C(c2ccc(OC)cc2OC(C)C)=N[C@H](c2ccc(Cl)cc2)[C@@H]1c1ccc(Cl)cc1`, the IC50 came to 1.66 µM in test [1] (read-out: IC50); 6.65 µM in test [2] (setting [8]); 3.25 µM in test [3] (setting [9]); 8.02 µM in test [4] (setting [10]); 6.2 µM in test [5] (setting [11]); 5.81 µM in test [6] (setting [12]).
As for `COc1ccc(C2=N[C@H](c3ccc(Cl)cc3)[C@H](c3ccc(Cl)cc3)N2C(=O)NCC(=O)N2CCN(C(C)=O)CC2)c(OC(C)C)c1`, the IC50 was determined as 5.43 µM in test [1] (read-out: IC50); 6.41 µM in test [2] (setting [8]); 3.42 µM in test [3] (setting [9]); 8.13 µM in test [4] (setting [10]); 7.1 µM in test [5] (setting [11]); 5.48 µM in test [6] (setting [12]).
Take `CCOC(=O)[C@@H](C)NC(=O)N1C(c2ccc(OC)cc2OC(C)C)=N[C@H](c2ccc(Cl)cc2)[C@@H]1c1ccc(Cl)cc1`: the IC50 was 0.59 µM in test [1] (read-out: IC50); 3.73 µM in test [2] (setting [8]); 0.31 µM in test [3] (setting [9]); 5.52 µM in test [4] (setting [10]); 2.2 µM in test [5] (setting [11]); 3.78 µM in test [6] (setting [12]). Also, the Ratio IC50 in test [7] is 8.
Regarding `COc1ccc(C2=N[C@H](c3ccc(Cl)cc3)[C@H](c3ccc(Cl)cc3)N2C(=O)N[C@H](C)C(=O)O)c(OC(C)C)c1`, the IC50 came to 3.27 µM in test [1] (read-out: IC50); 5.95 µM in test [2] (setting [8]); 1.67 µM in test [3] (setting [9]); 9.2 µM in test [4] (setting [10]); 5.59 µM in test [5] (setting [11]); 6.7 µM in test [6] (setting [12]).
Regarding `CCOC(=O)CCNC(=O)N1C(c2ccc(OC)cc2OC(C)C)=N[C@H](c2ccc(Cl)cc2)[C@@H]1c1ccc(Cl)cc1`, the IC50 in test [1] (read-out: IC50) was determined as 3.36 µM; in test [2] (setting [8]), 9.22 µM; in test [3] (setting [9]), 14.3 µM; in test [4] (setting [10]), 9.41 µM; in test [5] (setting [11]), 8.59 µM; in test [6] (setting [12]), 7.82 µM.
In the case of `COc1ccc(C2=N[C@H](c3ccc(Cl)cc3)[C@H](c3ccc(Cl)cc3)N2C(=O)NCC(=O)N2CCCC2)c(OC(C)C)c1`, the IC50 in test [1] (read-out: IC50) came to 10.3 µM; in test [2] (setting [8]) it was 3.99 µM; in test [3] (setting [9]), 3.13 µM; in test [4] (setting [10]), 2.9 µM; in test [5] (setting [11]), 5.87 µM; in test [6] (setting [12]), 6.11 µM.
Regarding `COc1ccc(C2=N[C@H](c3ccc(Cl)cc3)[C@H](c3ccc(Cl)cc3)N2C(=O)NCC(=O)O)c(OC(C)C)c1`, the IC50 stood at 6.18 µM in test [1] (read-out: IC50); 6.07 µM in test [2] (setting [8]); 0.48 µM in test [3] (setting [9]); 5.7 µM in test [4] (setting [10]); 3.9 µM in test [5] (setting [11]); 5.73 µM in test [6] (setting [12]).
